Test results as given in patent US9695155B2, “Herbicidal substituted pyrimidinyloxy benzene compounds” (E. I. DU PONT DE NEMOURS AND COMPANY, priority 2013, dated 2017).

How the values were obtained:
[1] = test system: barnyardgrass; assay: Test A preemergence; assay type: in vivo, Echinochloa crus-galli; conditions: for Plant response rating, Barnyardgrass / Barnyardgrass plant response rating: 0 to 100 scale where 0 is no effect and 100 is complete control; for Barnyardgrass plant response rating: 500 g ai/ha
Method in brief: (§1)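 Visual injury scored 0–100 (100 = complete control) against untreated controls about 10 days after treatment in a greenhouse. Test chemicals, formulated with surfactant in non-phytotoxic solvent, were sprayed on soil preemergence or on 2-10 cm, one- to two-leaf plants postemergence.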

[2] = test system: large (Lg) crabgrass; assay: Test A preemergence; assay type: in vivo, Digitaria sanguinalis; conditions: for Plant response rating, Crabgrass, Large / Crabgrass, Large plant response rating: 0 to 100 scale where 0 is no effect and 100 is complete control; for Crabgrass, Large plant response rating: 500 g ai/ha
Method in brief: as §1

[3] = test system: giant foxtail; assay: Test A preemergence; assay type: in vivo, Setaria faberii; conditions: for Plant response rating, Foxtail, Giant / Foxtail, Giant plant response rating: 0 to 100 scale where 0 is no effect and 100 is complete control; for Foxtail, Giant plant response rating: 500 g ai/ha
Method in brief: as §1

[4] = test system: morningglory; assay: Test A preemergence; assay type: in vivo, Ipomoea spp.; conditions: for Morningglory plant response rating (0 to 100 scale): 125 g ai/ha; for Morningglory plant response rating: 500 g ai/ha, 0 to 100 scale where 0 is no effect and 100 is complete control
Method in brief: as §1

[5] = test system: pigweed; assay: Test A preemergence; assay type: in vivo, Amaranthus retroflexus; conditions: for Pigweed plant response rating (0 to 100 scale): 125 g ai/ha; for Pigweed plant response rating: 500 g ai/ha, 0 to 100 scale where 0 is no effect and 100 is complete control
Method in brief: as §1

[6] = test system: velvetleaf; assay: Test A preemergence; assay type: in vivo, Abutilon theophrasti; conditions: for Velvetleaf plant response rating (0 to 100 scale): 125 g ai/ha; for Velvetleaf plant response rating: 500 g ai/ha, 0 to 100 scale where 0 is no effect and 100 is complete control
Method in brief: as §1

[7] = test system: wheat; assay: Test A preemergence; assay type: in vivo, Triticum aestivum; conditions: for Wheat plant response rating (0 to 100 scale): 125 g ai/ha; for Wheat plant response rating: 500 g ai/ha, 0 to 100 scale where 0 is no effect and 100 is complete control
Method in brief: as §1

[8] = test system: corn; assay: Test A preemergence; assay type: in vivo, Zea mays; conditions: for Plant response rating, Corn / Corn plant response rating: 0 to 100 scale where 0 is no effect and 100 is complete control; for Corn plant response rating: 500 g ai/ha
Method in brief: as §1

[9] = test system: barnyardgrass; assay: Test A postemergence; assay type: in vivo, Echinochloa crus-galli; conditions: 0 to 100 scale where 0 is no effect and 100 is complete control; for Barnyardgrass plant response rating: 125 g ai/ha; for Plant response rating, Barnyardgrass: 500 g ai/ha
Method in brief: as §1

[10] = test system: large (Lg) crabgrass; assay: Test A postemergence; assay type: in vivo, Digitaria sanguinalis; conditions: 0 to 100 scale where 0 is no effect and 100 is complete control; for Crabgrass, Large plant response rating: 125 g ai/ha; for Plant response rating, Crabgrass, Large: 500 g ai/ha
Method in brief: as §1

[11] = test system: giant foxtail; assay: Test A postemergence; assay type: in vivo, Setaria faberii; conditions: 0 to 100 scale where 0 is no effect and 100 is complete control; for Foxtail, Giant plant response rating: 125 g ai/ha; for Plant response rating, Foxtail, Giant: 500 g ai/ha
Method in brief: as §1

[12] = test system: morningglory; assay: Test A postemergence; assay type: in vivo, Ipomoea spp.; conditions: 0 to 100 scale where 0 is no effect and 100 is complete control; for Morningglory plant response rating: 125 g ai/ha; for Plant response rating, Morningglory: 500 g ai/ha
Method in brief: as §1

[13] = test system: pigweed; assay: Test A postemergence; assay type: in vivo, Amaranthus retroflexus; conditions: 0 to 100 scale where 0 is no effect and 100 is complete control; for Pigweed plant response rating: 125 g ai/ha; for Plant response rating, Pigweed: 500 g ai/ha
Method in brief: as §1

[14] = test system: velvetleaf; assay: Test A postemergence; assay type: in vivo, Abutilon theophrasti; conditions: 0 to 100 scale where 0 is no effect and 100 is complete control; for Velvetleaf plant response rating: 125 g ai/ha; for Plant response rating, Velvetleaf: 500 g ai/ha
Method in brief: as §1

[15] = test system: wheat; assay: Test A postemergence; assay type: in vivo, Triticum aestivum; conditions: 0 to 100 scale where 0 is no effect and 100 is complete control; for Wheat plant response rating: 125 g ai/ha; for Plant response rating, Wheat: 500 g ai/ha
Method in brief: as §1

[16] = test system: corn; assay: Test A postemergence; assay type: in vivo, Zea mays; conditions: 0 to 100 scale where 0 is no effect and 100 is complete control; for Corn plant response rating: 125 g ai/ha; for Plant response rating, Corn: 500 g ai/ha
Method in brief: as §1

[17] = test system: rice; assay: Test B flooded paddy test; assay type: in vivo, Oryza sativa; conditions: Flood, 250 g ai/ha; 0 to 100 scale where 0 is no effect and 100 is complete control
Method in brief: (§2)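 Evaluation is visual, against untreated controls, 13 to 15 days after treatment. Before treatment, plants reached the 2-leaf stage; pots were then flooded 3 cm deep, compound was added to the water, and that level was maintained. Ratings run 0 to 100, with 100 meaning complete control.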

[18] = test system: sedge, umbrella; assay: Test B flooded paddy test; assay type: in vivo, Cyperus difformis; conditions: Flood, 250 g ai/ha; 0 to 100 scale where 0 is no effect and 100 is complete control
Method in brief: as §2

[19] = test system: Heteranthera limosa; assay: Test B flooded paddy test; assay type: in vivo; conditions: Flood, 250 g ai/ha; 0 to 100 scale where 0 is no effect and 100 is complete control
Method in brief: as §2

[20] = test system: barnyardgrass; assay: Test B flooded paddy test; assay type: in vivo, Echinochloa crus-galli; conditions: Flood, 250 g ai/ha; 0 to 100 scale where 0 is no effect and 100 is complete control
Method in brief: as §2

Structure (SMILES) | Barnyardgrass plant response rating [1] | Crabgrass, Large plant response rating [2] | Foxtail, Giant plant response rating [3] | Morningglory plant response rating (0 to 100 scale) [4] | Morningglory plant response rating [4] | Pigweed plant response rating (0 to 100 scale) [5] | Pigweed plant response rating [5] | Velvetleaf plant response rating (0 to 100 scale) [6] | Velvetleaf plant response rating [6] | Wheat plant response rating (0 to 100 scale) [7] | Wheat plant response rating [7] | Corn plant response rating [8] | Barnyardgrass plant response rating [9] | Plant response rating, Barnyardgrass [9] | Crabgrass, Large plant response rating [10] | Plant response rating, Crabgrass, Large [10] | Foxtail, Giant plant response rating [11] | Plant response rating, Foxtail, Giant [11] | Morningglory plant response rating [12] | Plant response rating, Morningglory [12] | other results
N#Cc1cnc(Oc2cccc(C=O)c2-n2cc(Br)cn2)nc1 [Compound 174] | 0 | 0 | 0 | 0 | 0 | 0 | 0 | 0 | 0 | 0 | 0 | 0 | 0 | 0 | 0 | 0 | 0 | 0 | 0 | 0 | Plant response rating, Barnyardgrass ([1]; 125 g ai/ha): 0; Plant response rating, Crabgrass, Large ([2]; 125 g ai/ha): 0; Plant response rating, Foxtail, Giant ([3]; 125 g ai/ha): 0; Plant response rating, Corn ([8]; 125 g ai/ha): 0; Pigweed plant response rating [13]: 0; Plant response rating, Pigweed [13]: 0; Velvetleaf plant response rating [14]: 0; Plant response rating, Velvetleaf [14]: 0; Wheat plant response rating [15]: 0; Plant response rating, Wheat [15]: 0; Corn plant response rating [16]: 0; Plant response rating, Corn [16]: 0; Plant response rating, Rice [17]: 0; Plant response rating, Sedge, Umbrella [18]: 0; Plant response rating, Ducksalad [19]: 0; Plant response rating, Barnyardgrass [20]: 0
N#Cc1cnc(Oc2cccc(C(F)F)c2-n2cc(Br)cn2)nc1 [Compound 175] | 0 | 0 | 0 | 0 | 0 | 0 | 0 | 0 | 0 | 0 | 0 | 0 | 0 | 0 | 0 | 0 | 0 | 0 | 0 | 0 | Plant response rating, Barnyardgrass ([1]; 125 g ai/ha): 0; Plant response rating, Crabgrass, Large ([2]; 125 g ai/ha): 0; Plant response rating, Foxtail, Giant ([3]; 125 g ai/ha): 0; Plant response rating, Corn ([8]; 125 g ai/ha): 0; Pigweed plant response rating [13]: 0; Plant response rating, Pigweed [13]: 0; Velvetleaf plant response rating [14]: 0; Plant response rating, Velvetleaf [14]: 0; Wheat plant response rating [15]: 0; Plant response rating, Wheat [15]: 0; Corn plant response rating [16]: 0; Plant response rating, Corn [16]: 0; Plant response rating, Rice [17]: 0; Plant response rating, Sedge, Umbrella [18]: 0; Plant response rating, Ducksalad [19]: 0; Plant response rating, Barnyardgrass [20]: 0
O=Cc1cccc(Oc2ncc(Br)cn2)c1-n1cc(I)cn1 [Compound 183] | 0 | 0 | 0 | 0 | 0 | 20 | 90 | 0 | 0 | 0 | 0 | 0 | 0 | 0 | 0 | 0 | 0 | 0 | 0 | 0 | Barnyardgrass plant response rating (0 to 100 scale, 0 is no effect, 100 is complete control) ([1]; 125 g ai/ha): 0; Crabgrass, Large plant response rating (0 to 100 scale) ([2]; 125 g ai/ha): 0; Foxtail, Giant plant response rating (0 to 100 scale) ([3]; 125 g ai/ha): 0; Corn plant response rating (0 to 100 scale) ([8]; 125 g ai/ha): 0; Pigweed plant response rating [13]: 20; Plant response rating, Pigweed [13]: 50; Velvetleaf plant response rating [14]: 20; Plant response rating, Velvetleaf [14]: 30; Wheat plant response rating [15]: 0; Plant response rating, Wheat [15]: 0; Corn plant response rating [16]: 0; Plant response rating, Corn [16]: 0; Plant response rating, Rice [17]: 0; Plant response rating, Sedge, Umbrella [18]: 0; Plant response rating, Ducksalad [19]: 0; Plant response rating, Barnyardgrass [20]: 0
